Test results as given in PubChem BioAssay AID1996.
≈ marks a conversion by molar mass, not a printed value.

Settings: buffer; pH 7.4; 200.0 µM

Compound	solubility kinetic
CCOc1ccc(Nc2ncnc3ccc([N+](=O)[O-])cc23)cc1	4.1 µg/mL (≈ 13.2 µM)
N#Cc1cccc(CSc2ncnc(N)n2)c1	> 36.5 µg/mL
N#Cc1ccc(OCC(=O)NC2=NCCS2)cc1	> 39.2 µg/mL
Cc1c(NC(=O)COC(=O)C2=COCCO2)cccc1[N+](=O)[O-]	> 48.3 µg/mL
CC(C)(C)OC(=O)N1Cc2[nH]c3ccccc3c2C[C@@H]1C(=O)O	> 47.5 µg/mL
COc1ccc(Nc2ccc(C(N)=O)cc2[N+](=O)[O-])cc1	14.3 µg/mL (≈ 49.8 µM)
CC1CCCCC1NC(=O)NC(=O)COC(=O)c1nccnc1N (stereo not drawn)	> 50.3 µg/mL
CCN(CC)CC(O)COC(c1ccccc1)c1ccccc1 (stereo not drawn)	41.8 µg/mL (≈ 133 µM)
Cl.O=[N+]([O-])c1cccc(CNCc2ccccc2)c1	40.2 µg/mL
O=C(NC1CCCCCCC1)c1cccc(Cl)c1	0.9 µg/mL (≈ 3.39 µM)
CC(Cc1cccs1)NCc1ccc(Cl)cc1 (stereo not drawn)	22.6 µg/mL (≈ 85 µM)
Cc1nc(N2CCCCC2)c(C#N)c(C)c1[N+](=O)[O-]	3.8 µg/mL (≈ 14.6 µM)
COc1ccc(CC(=O)Oc2ccc(C#N)cc2)cc1	> 40.1 µg/mL
Cc1ccc(Oc2ncnc(N)c2[N+](=O)[O-])cc1	12.3 µg/mL (≈ 50 µM)
CCC1(CC)Cc2ccccc2-c2[nH]c(=S)[nH]c(=O)c21	27.3 µg/mL (≈ 95.3 µM)
CS(=O)(=O)N(CC(=O)N1CCCC1)c1ccc(Cl)cc1	> 47.5 µg/mL
Cc1cc2c(cc1C)C(c1ccccc1F)CC(=O)N2 (stereo not drawn)	< 0.6 µg/mL
COc1ccc2[nH]cc(/C=C/C(=O)c3ccccc3)c2c1	2.9 µg/mL (≈ 10.5 µM)
O=C(CC1CC2CCC1C2)NCCc1ccc(Cl)cc1 (stereo not drawn)	29.7 µg/mL (≈ 102 µM)
FC(F)Oc1ccccc1NC(=S)Nc1cccnc1	43.8 µg/mL (≈ 148 µM)
O=C(NC(=S)Nc1ccc(Cl)cc1)c1cncc(Br)c1	3.4 µg/mL (≈ 9.17 µM)
Cc1ccc(C2Nc3cccc4cccc(c34)N2)cc1	4.7 µg/mL (≈ 18.1 µM)
CC(C)Oc1ccc(C2NC(=O)c3ccccc3O2)cc1 (stereo not drawn)	2.6 µg/mL (≈ 9.18 µM)
Cc1cc2c(c(=O)o1)C(CCC1CCCCC1)C(C#N)=C(N)O2 (stereo not drawn)	8 µg/mL (≈ 25.4 µM)
Cl.NC(=S)NC(c1ccccc1)c1ccncc1 (stereo not drawn)	39.5 µg/mL
O=C(Nc1ccc(Cl)cc1)Nc1ccc(-c2cnco2)cc1	0.7 µg/mL (≈ 2.23 µM)

Compound	solubility kinetic
O=C(CN1C(=O)NC2(CCCCC2)C1=O)N1CCc2ccccc2C1	> 51.2 µg/mL
COc1ccccc1N1CCN(CC(O)c2ccccc2)CC1 (stereo not drawn)	37.6 µg/mL (≈ 120 µM)
O=[N+]([O-])c1cccc(S(=O)(=O)NC2CC3CCC2C3)c1 (stereo not drawn)	42.8 µg/mL (≈ 144 µM)
COc1cccc(NC(=O)c2cncs2)c1	32.9 µg/mL (≈ 140 µM)
CC(Sc1ncccn1)C(=O)Nc1ccc2c(c1)OCO2 (stereo not drawn)	45 µg/mL (≈ 148 µM)
CC1CCCN(CCS(=O)(=O)c2ccccc2)C1 (stereo not drawn)	39.5 µg/mL (≈ 148 µM)
COc1ccc2oc(=O)c(C(=O)NC3CCCCCC3)cc2c1	2.6 µg/mL (≈ 8.24 µM)
O=C(NCCc1ccc(F)cc1)NC12CC3CC(CC(C3)C1)C2	6.5 µg/mL (≈ 20.5 µM)
CCOP(=O)(OCC)C(O)c1cccnc1 (stereo not drawn)	> 36.8 µg/mL
O=S1(=O)CC(O)C(NCCO)C1 (stereo not drawn)	> 29.3 µg/mL
O=C(O)/C=C\C(=O)Nc1ccc(OC(F)F)cc1	35.5 µg/mL (≈ 138 µM)
CCCN(CC1CC1)C(=O)CSc1ncnc2sccc12	> 48.2 µg/mL
C/C(=N/NC(=O)c1ccncc1)c1ccc2c(c1)OCO2	> 42.5 µg/mL
O=C(CN1CCOCC1)NCCc1ccccc1	> 37.2 µg/mL
Fc1cnc(Cl)nc1NC1CCCCC1	27.1 µg/mL (≈ 118 µM)
OCC1(CCOc2ccccc2)CCN(Cc2ccncc2)CC1	39 µg/mL (≈ 119 µM)
N#C/C=C/N1CCC(Cc2ccccc2)CC1	29.6 µg/mL (≈ 131 µM)
S=C(NCc1cccnc1)Nc1ccc2c(c1)OCO2	> 43.1 µg/mL
COC(=O)c1cc(NC(=O)Cc2cccs2)cc(C(=O)OC)c1	19.5 µg/mL (≈ 58.5 µM)
CC(NC(=O)c1ccc([N+](=O)[O-])o1)C1CC2CCC1C2 (stereo not drawn)	> 41.7 µg/mL
CC(C)(/C=N/O)N(O)C=C1C=CC(=O)C=C1	> 33.3 µg/mL
COc1ccccc1N1CC(C(=O)Nc2ccc(S(=O)(=O)N3CCCC3)cc2)CC1=O (stereo not drawn)	> 66.5 µg/mL
COc1ccc2c(c1OC)C(=O)N1C2SC(C)(C)[C@H]1C(=O)NC1CC1 (stereo partly drawn)	> 54.4 µg/mL
Nc1nc(N)c2c(n1)CCCC2	17.6 µg/mL (≈ 107 µM)
CC(C)N1CCN(Cc2ccncc2)CC1CCO (stereo not drawn)	24.3 µg/mL (≈ 92.3 µM)

Results, then the compound that gave them:

solubility kinetic	Compound
< 0.3 µg/mL	CCOc1ccc(C(=O)Nc2nc(C)c(C(=O)OC)s2)cc1
41.5 µg/mL (≈ 121 µM)	Cc1ccc(CNC(=O)c2ccc(Cl)c(S(N)(=O)=O)c2)n1C
41.7 µg/mL (≈ 135 µM)	O=C(COC(=O)c1cccc(F)c1)Nc1cccnc1Cl
> 46.5 µg/mL	O=C(Nn1cnc2ccccc2c1=O)c1ccc([N+](=O)[O-])cc1
> 44.5 µg/mL	COc1ccc2nc(C)cc(NCc3ccc(F)cc3)c2c1
> 43.2 µg/mL	Cc1cc(=O)[nH]c(N2CCN(C(=O)c3ccco3)CC2)n1
4.3 µg/mL (≈ 13 µM)	O=C(Nc1ccc2ccccc2c1)c1ccc2[nH]c(=O)c(=O)[nH]c2c1
2.4 µg/mL (≈ 7.71 µM)	CCn1cc(C(=O)NCc2ccco2)c(=O)c2ccc(C)nc21
11.1 µg/mL (≈ 35.3 µM)	Cn1cccc1C(=O)OCC(=O)Nc1ccc2[nH]c(=O)[nH]c2c1
36.8 µg/mL (≈ 122 µM)	COc1cccc(C(=O)Nc2ccc3c(c2)OCO3)c1OC
32.5 µg/mL (≈ 111 µM)	Cc1cc(C(=O)CSc2nc(N)cc(=O)[nH]2)ccc1F
3.2 µg/mL (≈ 9.58 µM)	O=C(Nc1ccc2c(c1)OCCO2)c1cccc(Br)c1
39.7 µg/mL (≈ 126 µM)	COc1ccccc1CNC(=O)COC(=O)c1nccnc1N
29.6 µg/mL (≈ 110 µM)	Cc1ccc(NC(=O)C(=O)NCc2ccncc2)cc1
6.4 µg/mL (≈ 21.6 µM)	N#Cc1ccc(C(=O)NCCCSc2ccccc2)cc1
2.8 µg/mL (≈ 12.9 µM)	Cc1cc(C)c2ccc(/C=N/O)nc2c1O
2.6 µg/mL (≈ 11.1 µM)	CC(C)CCNC(=O)C(=O)Nc1ccccc1
0.3 µg/mL (≈ 0.932 µM)	O=c1[nH]cnc2c1c(-c1ccccc1)cn2-c1cccc(Cl)c1
> 50.8 µg/mL	Cn1nccc1C(=O)OCC(=O)Nc1ccc(S(N)(=O)=O)cc1

solubility kinetic	Compound
> 54.3 µg/mL	Cc1cccnc1NC(=O)CCNC(=O)c1ccc(Br)cc1
36.7 µg/mL (≈ 142 µM)	Cc1ccnc(NC(=O)CSc2ccccn2)c1
> 47.9 µg/mL	Cc1ccc(CNS(=O)(=O)c2cccc3nsnc23)cc1
> 43.4 µg/mL	Cc1ccc(S(=O)(=O)NC(=O)c2cccc(C)c2)cc1
> 51 µg/mL	CCN(c1ccccc1)S(=O)(=O)c1ccc(Cl)c(C(=O)O)c1
43.3 µg/mL (≈ 121 µM)	COc1ccc(-c2noc(CN(C)C(=O)c3ccoc3C)n2)cc1OC
32.5 µg/mL (≈ 127 µM)	Cc1ccc(CNCc2ccc3c(c2)OCO3)cc1
4.4 µg/mL (≈ 14.6 µM)	Cc1ccc(CNC(=O)COC(=O)c2cc(C)oc2C)cc1
47.8 µg/mL (≈ 146 µM)	Cc1ccc(NC(=O)CN2CCN(C(=O)c3ccco3)CC2)cc1
< 0.3 µg/mL	COc1cccc(OC)c1OC(=O)c1cnccn1
< 0.3 µg/mL	O=C(CSc1nc(C2CC2)nc2ccccc12)Nc1cccc(O)c1
> 44.9 µg/mL	Cc1ccsc1/C=C(\CC(=O)O)c1nc2ccccc2o1
1.4 µg/mL (≈ 4.79 µM)	Cc1ccc2nc(NCC(N)=O)nc(-c3ccccc3)c2c1
0.7 µg/mL (≈ 2.12 µM)	COc1ccc(-n2cc([N+](=O)[O-])c(=O)c3ccc(Cl)cc32)cc1
> 40.5 µg/mL	Cc1cc(=O)[nH]c(-c2ccccc2OC(F)(F)F)n1
38 µg/mL (≈ 131 µM)	O=C(CSc1ccccn1)Nc1cccc([N+](=O)[O-])c1
> 43.2 µg/mL	Cn1c(=O)[nH]c(=O)c2c1[nH]c(=S)n2Cc1ccccc1
17.7 µg/mL (≈ 56.9 µM)	COc1ccc(NC(=O)C2=Cc3cccc(OC)c3OC2)cc1
